# Test results as given in paper PMC5175178, “Development of an in-vivo active reversible butyrylcholinesterase inhibitor” (Scientific Reports, 2016).
# Where two headings read alike, the source gives them in different places.
# What was measured:
# in vitro [1] = details: both, human, hepatocytes, pH 7.3
# Experimental: (§1) The plasma metabolic stability and hepatic clearance were estimated by the substrate depletion method.
# (§2) Cryopreserved hepatocytes (mixed gender and pool of 10 or more) were thawed, washed, and resuspended in Krebs-Heinslet buffer (pH 7.3). […] The reaction was stopped by adding acetonitrile into the incubation mixture. Samples were then mixed, transferred completely to another 96-well plate, and centrifuged. Supernatants were used for HPLC-MS/MS analysis. As reference substances, four compounds were tested in each assay. […] In the HPLC-MS/MS analysis peak areas corresponding to the test compounds were recorded. Metabolic stability, expressed as percentage of the parent compound remaining, was calculated by comparing the peak area of the compound at the time point relative to that at time 0. The half-life (t1/2) was estimated from the slope of the initial linear range of the logarithmic curve of the compound remaining (%) versus time, assuming first order kinetics. The apparent intrinsic clearance (Clint in µL/min/million cells) was calculated from the half-life according to the following formula:
# SH-SY5Y cells = test: Cytotoxicity in SH-SY5Y cells, MTS cell viability assay; details: 48 h
# Experimental: Prior to cell treatments, complete medium was replaced with reduced-serum medium (i.e., with 2% fetal bovine serum).
# (§3) After 24 h (a) or 48 h (b), the cell viability was evaluated using the MTS assay. The control group (DMSO) was considered as 100% cell viability. Data are means ±SD of at least three independent experiments, each carried out in triplicate (a) and quadruplicate (b).
# The cells were treated as described above, and cell viability was assessed after 48 h using the CellTiter 96 Aqueous One Solution Cell Proliferation Assay (Promega, Madison, WI, USA), according to the manufacturer instructions. […] The data are presented as percentages of the control (DMSO).
# mice [2] = test: Locomotor activity test; details: 30 mg kg^–1 IP, 1 h before the assay
# Text: Eight-week-old male Albino Swiss (CD–1 Krf) mice weighing from 18 g to 22 g were used in the passive avoidance task, and the locomotor activity and rotarod tests, and C57BL/6 J mice of the same age were used in the MWM and the RAWM tasks. […] The mice had free access to food and water, and the ambient temperature and humidity of the room were kept constant throughout all of the tests. For the behavioral tasks, the mice were selected at random, and each group consisted of 8 to 10 mice dose^−1. The experiments were performed between 08:00 and 14:00. Immediately after these in-vivo assays, the animals were euthanized by cervical dislocation. […] All efforts were made to minimize the number of mice used and their suffering.
# Data are means ±SEM. The vehicle and the test compound were administered intraperitoneally, 1 h before the assay. Statistical analysis of the data was performed using repeated measures analysis of variance (ANOVA), followed by Bonferroni multiple comparisons.
# The mouse locomotor activity (i.e., number of light-beam crossings) was measured during the next 30 min of the test^36.
# [3] = test system: Aβ(1–42)-induced cytotoxicity in SH-SY5Y cells; test: Neuroprotection against Aβ(1–42)-induced cytotoxicity, PI flow cytometry; format: cell-based, human; details: 10 μM, 5 μM Aβ(1–42), 48 h
# Experimental: Neurotoxicity induced by Aβ species (mainly Aβ(1–42)) is a contributor to the pathogenesis of neurodegeneration in AD[41]. […]. […] […].
# Supplementary Figure 8. […]. […].
# […]; Sigma, St. Louis, MO, USA). […] SH-SY5Y cells were seeded into a 24-well culture plate (1.2 ×10^5/well) and next day, treated as described above. After 48 h treatment, cells were washed with pre-warmed PBS and further stained with PI solution (30 µM) for 15 min at 37 °C. Cells were then analyzed for cytotoxicity by flow cytometry on FACS Calibur (BD Bioscience, San Jose, CA, USA). The percentage of PI positive cells (PI^pos) was evaluated using FlowJo software (Ashland, OR, USA) and results are presented as a relative fold increase of PI^pos corresponding vehicle treatment (DMSO control).
# [4] = test system: cryopreserved human hepatocytes; test: Metabolite identification in cryopreserved human hepatocytes, LC-HRMS; details: 2 h with human cryopreserved hepatocytes
# Experimental: The plasma metabolic stability and hepatic clearance were estimated by the substrate depletion method. Qualitative aspect of metabolic degradation was performed by metabolite identification using LC-high resolution mass spectrometry (HRMS). […] Principal Phase I (oxidative) and Phase II (conjugative) metabolites have been detected and characterized following previously described preocedure^27. […] Samples were taken at time 0 and the end of the incubation (2 h), respectively. A control sample (no test compound added) was also prepared and incubated for the same period of time. After the reaction was stopped by addition of acetonitrile, the supernatants were subjected to HPLC-MS analysis. Separation of analytes was achieved using Acquity HSS T3 column (100 × 2.1 mm, 1.8 µ, Waters). The sample solutions-supernatants (5 µL) were injected and eluted at a flow rate of 0.5 mL min^–1, using a linear gradient of mobile phase A (0.1% formic acid in water) and mobile phase B (0.1% formic acid in MeCN). […] Retention times and the respective MS and MS/MS spectra of the species detected in the incubated sample and not in time-zero or blank sample were identified and recorded.
# [5] = test system: scopolamine-induced memory impairment in mice; test: Passive avoidance task, scopolamine-induced memory impairment; format: in vivo, Albino Swiss (CD–1 Krf) mice
# Experimental: The first behavioral test performed was the passive avoidance (PA) task, which allows the evaluation of the effects of a drug on fear-motivated contextual memory. […] In the passive avoidance task, better memory performance is determined according to a longer step-through latency in the retention trial (i.e., the testing phase) than in the acquisition trial (i.e., the conditioning phase). […] The mice had free access to food and water, and the ambient temperature and humidity of the room were kept constant throughout all of the tests. For the behavioral tasks, the mice were selected at random, and each group consisted of 8 to 10 mice dose^−1. The experiments were performed between 08:00 and 14:00. Immediately after these in-vivo assays, the animals were euthanized by cervical dislocation. […] All efforts were made to minimize the number of mice used and their suffering.
# The effect of the test compounds on acquisition and retention in the passive avoidance task was conducted accordingly to a previously described method^30. For this purpose, the passive avoidance apparatus was used (Panlab Harvard Apparatus, Spain).
# The testing phase was conducted 24 h after the acquisition phase. For the acquisition, each mouse was initially placed for 30 s in the light compartment (exploration period; guillotine gate closed). At the end of the exploration period the guillotine door between the light and the dark compartments was opened and the time elapsed before entering the black chamber was recorded. As soon as the mouse entered the dark compartment, the door automatically closed and an electrical shock (current intensity: 0.2 mA, duration: 2 s) was delivered through the grid floor.
# For the retention trial (drug off), the mice were placed in the illuminated white compartment again, and the latency time between door opening and entry into the dark compartment was recorded for each mouse. […] Better memory performance was indicated by longer latency before entry into the black chamber in the test (retention) phase than in the conditioning (acquisition) phase.
# [6] = test system: scopolamine-induced memory impairment in mice; test: Two-day radial arm water maze task, scopolamine-induced memory impairment; format: in vivo, C57BL/6J mice
# Experimental: In this task incorrect arm entries (i.e., errors) are counted. […] The mice had free access to food and water, and the ambient temperature and humidity of the room were kept constant throughout all of the tests. For the behavioral tasks, the mice were selected at random, and each group consisted of 8 to 10 mice dose^−1. The experiments were performed between 08:00 and 14:00. Immediately after these in-vivo assays, the animals were euthanized by cervical dislocation. […] All efforts were made to minimize the number of mice used and their suffering.
# C57BL/6J mice were subjected to the radial arm water maze paradigm^34,35. The main part of the apparatus (Panlab Harvard Apparatus, Spain) consists of a 6-arm maze in a pool filled with water to approximately 10 cm from the top, to be high enough to cover the hidden platform by about 0.5 cm, but also low enough that the visible platform was not covered. The pool was regularly cleaned of any debris left by the mice. The temperature of the water was kept constant during testing (23 ±1 °C). The tester remained in the same position throughout the testing, thus providing an additional visual cue for the mice.
# On day 1, 15 trials were run in five blocks of three. Each trial lasted up to 60 s. The start arm was varied for each trial, with the goal arm remaining constant for a given individual for both days^34,35. For the first 12 trials, the platform was alternately visible, then hidden, and then hidden for the last three trials. On day 2, the mice (without drug treatment on this day) were run in the same manner as on day 1, but the platform was hidden for all of the trials. As errors have been reported to be the most sensitive measure in this assay^34, the number of errors (i.e., incorrect arm entries made) was counted in a 60 s time-frame. Incorrect arm entries occurred when the mouse selected an arm that was not the goal arm. Entries into the goal arm were not counted as errors, even if the platform was not located. An entry was considered to occur when all four legs of the mice had entered the alley completely. […] If the platform was not located within 60 s, the mice were gently guided through the water by placing a hand behind the animal to direct its swimming direction toward the platform. […] After that, the mouse was gently removed from the platform and thoroughly dried using cellulose paper before placing it back into its home cage under a heat source (a heat lamp).
# For the statistical analysis of the data obtained, to minimize the impact of individual trial variability, each mouse error for the finding of the platform for three consecutive trials were averaged, giving five data points (5 trial blocks): T1 (trials 1–3), T2 (trials 4–6), T3 (trials 7–9), T4 (trials 10–12) and T5 (trials 13–15), separately for each day of testing.
# mice [7] = test: Observation of acute cholinergic adverse effects; format: in vivo; details: even at 100 mg kg^−1
# HepG2 cells = test: Cytotoxicity in HepG2 cells, MTS metabolic activity assay; details: 24 h
# Experimental: as §3
# HepG2 cells (1 ×10^4 cells/well) were treated for 24 h with the appropriate concentrations of the compounds of interest or the corresponding vehicle (control cells), in triplicates in 96-well plates. The metabolic activities were determined using the CellTiter 96 Aqueous One Solution Cell Proliferation Assay (Promega, WI/USA), according to the manufacturer instructions.
# [8] = test system: cryopreserved human hepatocytes; test: Metabolic stability in cryopreserved human hepatocytes; details: 1 µM
# Experimental: as §1, §2
# Aβ1–42 aggregation [9] = biological target: T1, Aβ1–42 aggregation (Homo sapiens, UniProt P05067); test: Aβ1–42 aggregation inhibition, dot-blot assay; format: biochemical; details: 10 μM compound
# T1 construct: Recombinant human HFIP-pretreated Aβ1–42 peptide (Merck Millipore, Darmstadt, Germany); purchased Merck Millipore, Darmstadt, Germany
# Experimental: Recombinant human HFIP-pretreated Aβ1–42 peptide (Merck Millipore, Darmstadt, Germany) was dissolved in DMSO to give 100 μM stock solution. Prior to the incubations, the Aβ1–42 peptide stock solution was diluted in HEPES buffered solution (150 mM HEPES, pH 7.4, 150 mM NaCl) to give 10 μM Aβ1–42. […]; 10 μM final concentration), and added to the black-walled 96-well plates in quadruplicate, and diluted with HEPES buffered solution to a final volume of 100 μL. To determine the blank value (b), 1% DMSO in HEPES buffered solution replaced the Aβ1–42 peptide solution. The sealed 96-well plate was placed in an incubator at 37 °C with continuous shaking, for 24 h. Then 10 μL from each well were spotted on nitrocellulose membrane. The membrane was dried and blocked with 5% non-fat milk in TBST (50 mM Tris, pH 7.4, 150 mM NaCl, 0.1% Tween 20) at room temperature for 30 min, washed with TBST, and probed with the LOC anti-amyloid fibrils antibody (Millipore, 1:10,000, in 2% non-fat milk-TBST) or the OC anti-amyloid fibrils antibody (Millipore, 1:10,000, in 2% non-fat milk-TBST), for 1 h. […] The blots were developed with Pierce ECL Western Blotting Substrate (Thermo Scientific) for 2 min, detected with a Bio-Rad ChemiDoc MP Imaging System, and further analyzed with Image Lab software (Bio-Rad). Inhibition of the Aβ1–42 aggregation was quantified using equation: […]
# in vitro [10] = format: in vitro ADME; design: protein bound: dose or concentration left out as unconfirmed; details: for recovery at 4 h, 10 µM: human, pH 7.4, human plasma protein binding assay
# Experimental: The experiment was accepted in accordance with Eurofins validation Standard Operating Procedure.
# The equilibrium dialysis technique was used to separate the fraction of the bound to human plasma protein. The assay was performed in a 96-well format in a dialysis block constructed from Teflon to minimize the unspecific binding^25. Plasma from human was used as the default protein containing matrix. […] The dialysate compartment was loaded with the phosphate buffered saline (PBS, pH 7.4), and the sample side was loaded with equal volume of the spiked protein matrix. The dialysis plate was then sealed and incubated at 37 °C for 4 h. A control sample (n = 2) was prepared from the spiked protein matrix in the same manner as the assay sample (without dialysis). The control sample served as the basis for the recovery determination. After the incubation, samples were taken from each compartment, diluted with phosphate buffer followed by addition of acetonitrile and centrifugation. The supernatants were then used for HPLC-MS/MS analysis using selected reaction monitoring. The HPLC conditions consisted of a binary LC pump with autosampler, a C18 column (2 × 20 mm), and gradient elution.
# Protein binding (%) = (Areap-Areab) / Areap ×100 (3),
# Recovery (%) = (Areap-Areab) / Areac ×100 (4),
# The recovery determination serves as an indicator of reliability of the calculated protein binding value. Low recovery would indicate that the test compound is lost during the course of the assay, most likely due to non-specific binding or degradation.
# [11] = Caco-2 monolayer bidirectional permeability assay; details: human, Caco-2, Papp(A–B), apical-to-basolateral, 100 µM donor
# Experimental: They were grown on Transwell® culture inserts with a polycarbonate membrane (diameter, 12 mm; pore size, 0.4 µm). 50,000 cells/filter membranes were used for seeding and the medium was changed every two days. At day 18, transepithelial electrical resistance (TEER) was measured for each filter with Caco-2 cell monolayers. […] The samples were acidified by dilution with the same volume of 0.01M HCl before fluorescence measurements.
# Ringer buffer with 10 mM d-glucose or 10 mM mannitol on apical and basolateral side of the tissue, respectively, was used as an incubation saline. […] The stock solutions were added either to the apical or to the basolateral compartment to obtain bidirectional permeability measurements. Six samples were withdrawn in 20 min intervals. Each time 300 µl was taken from the 1500 µL basolateral acceptor compartment and 100 µL from the 500 µL apical acceptor compartment. These volumes were immediately replaced by the appropriate fresh incubation saline. […] All apparent permeability coefficients were calculated as described previously^24.
# Aβ1–42 aggregation [12] = biological target: T1, Aβ1–42 aggregation; test: Aβ1–42 aggregation inhibition, thioflavin-T fluorometric assay; format: biochemical
# Experimental: Recombinant human HFIP-pretreated Aβ1–42 peptide (Merck Millipore, Darmstadt, Germany) was dissolved in DMSO to give 75 μM stock solution. […]. The ThT emission of the Aβ1–42 began to rise after 4 h, reached a plateau after 20 h, and remained almost unchanged for an additional 28 h of incubation. The fluorescence intensities at the plateau in the absence and presence of the test compound were averaged, and the average fluorescence of the corresponding wells at t= 0 h was subtracted. […]
# in vitro [13] = details: human, plasma
# Experimental: as §1
# (§4) The incubation was performed in a 37 °C water bath for 2 h. An aliquot of the incubation mixture was transferred to acetonitrile at 0, 0.5, 1, 1.5 and 2 h, respectively. Samples were then mixed and centrifuged. Supernatants were used for HPLC-MS/MS analysis using selected reaction monitoring, and peak areas were recorded for each analyte. The HPLC conditions consisted of a binary LC pump with autosampler, a C18 column (2 × 20 mm), and gradient elution. The area of precursor compound remaining after each time points relative to the amount remaining at time zero, expressed as percent, is calculated. Subsequently, the half-life (t1/2) was estimated from the slope of the initial linear range of the logarithmic curve of the compound remaining (%) versus time, assuming first order kinetics.
# [14] = test system: scopolamine-induced memory impairment in mice; test: Morris water maze task, scopolamine-induced memory impairment
# Experimental: In this task the time taken to reach the hidden platform (i.e., the escape latency time), the distance travelled, and the mean speed of swimming are recorded for each experimental group. […] For the behavioral tasks, the mice were selected at random, and each group consisted of 8 to 10 mice dose^−1. The experiments were performed between 08:00 and 14:00. Immediately after these in-vivo assays, the animals were euthanized by cervical dislocation. […] All efforts were made to minimize the number of mice used and their suffering.
# The Morris water maze is a circular, plastic, grey-painted pool (diameter, 120 cm; height, 60 cm), filled with water (up to about 48 cm below the edge, to prevent an animal from jumping out) that was maintained at 23 ±1 °C. The pool was divided into four equal quadrants (compass locations: NE, NW, SE, SW) by a computerized video tracking system (SMART, ver. 3.0; Panlab, Spain). An escape platform (diameter, 11 cm; height, 47 cm) at a fixed location (the center of the NW quadrant; i.e., the target quadrant). The escape platform was made of transparent Plexiglas and was immersed 1 cm under the surface of water; this was invisible to the swimming mouse. The maze was lighted with the intensity of 45 lx.
# During the spatial acquisition trial (six consecutive days), the mice were assigned to training sessions (four training sessions a day; 4 h apart) in which the mice were trained to escape from the water by reaching the hidden platform, the location of which could be identified using distal extra-maze cues (A4-sized sheets of black laminated paper with colored geometric symbols) attached to the room walls to provide navigation points^31. Visual cues had different colors and dimensions, and were kept constant during the whole experiment^31,32. The whole experiment was conducted by an experimenter who remained always stationary in a constant location, thus serving as an additional distal cue for the swimming mice. […] The time taken to reach the hidden platform (escape latency time), distance travelled to reach the platform, and mean speed were recorded in each experimental group and analyzed.
# On the seventh day (24 h after the last training) the platform was removed from the pool and a probe trial was performed (without drug treatment). Each animal was released from a different start point and was allowed to swim for 60 s. […] Latency time to the first crossing of the former platform location (target zone), number of crossings of the target zone, time spent in the target NW quadrant, total distance, distance spent in NW quadrant, entries into the NW quadrant, and mean speed were measured^31.
# [15] = human plasma, 10 µM, 37 °C, 4 h
# [16] = probe trial day 7, scopolamine + 30 mg kg^–1
# Experimental for Human plasma stability: as §1, §4
# T1 sequence (P05067 672-713): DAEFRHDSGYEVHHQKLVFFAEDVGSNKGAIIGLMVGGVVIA
smiles,measurement,setting,value
"COCCN(CC1CCCN(Cc2ccccc2)C1)S(=O)(=O)c1ccc2ccccc2c1 (racemic) [compound 2, (±)-N-((1-benzylpiperidin-3-yl)methyl)-N-(2-methoxyethyl)naphthalene-2-sulfonamide]",half-life at 1 µM,in vitro [1],0.928 h
same,LD50 SH-SY5Y cells,SH-SY5Y cells,31.40 µM
same,locomotor activity of mice,mice [2],transient reduction in the locomotor activity
same,neuroprotective effect on Aβ(1–42)-induced cell death,[3],reversed Aβ(1–42)-induced cell death
same,half-life in human plasma,Human plasma stability; discussion,> 2 h
same,Half-Life t1/2 (min) 1st,"Human plasma stability; human plasma, 1 µM, 37 °C",223.1 min
same,Half-Life t1/2 (min) 2nd,"Human plasma stability; human plasma, 1 µM, 37 °C",206.7 min
same,Half-Life t1/2 (min) Mean,"Human plasma stability; human plasma, 1 µM, 37 °C",>120 min
same,possible metabolites identified with LC-HRMS,[4],"N-debenzylated, demethylated, and a demethylated + glucoronide products"
same,"step-through latency, retention trial",[5]; 10 mg kg^−1 IP before scopolamine 1 mg kg^−1,70 s
same,"step-through latency, retention trial",[5]; 20 mg kg^−1 IP before scopolamine 1 mg kg^−1,58 s
same,"step-through latency, retention trial",[5]; 30 mg kg^−1 IP before scopolamine 1 mg kg^−1,102 s
same,errors at the end of the acquisition phase (day 1),[6]; scopolamine + 30 mg kg^−1,< 1 error
same,errors in the last trial block of day two,[6]; scopolamine + 30 mg kg^−1 on day 1,< 1 error
same,acute cholinergic adverse effects,mice [7],no acute cholinergic adverse effects
same,LD50 HepG2 cells,HepG2 cells,58.67 µM
same,Half-Life t1/2 (min) 2nd,[8],51.7 min
same,Half-Life t1/2 (min) Mean,[8],54 min
same,Half-Life t1/2 (min) 2rd,[8]; third replicate column,55.6 min
same,inhibition at 10 µM,Aβ1–42 aggregation [9]; read-out: Percent inhibition ±SEM (%) Dot blot (LOC antibody),12.7 ± 8.9%
same,inhibition at 10 µM,Aβ1–42 aggregation [9]; read-out: Percent inhibition ±SEM (%) Dot blot (OC antibody),2.7 ± 9.32%
same,protein bound,"in vitro [10]; human blood plasma, equilibrium dialysis",96%
same,Protein Bound (%) 1st,in vitro [10]; [15],96.0%
same,Protein Bound (%) 2nd,in vitro [10]; [15],95.3%
same,Protein Bound (%) Mean,in vitro [10]; [15],96%
same,"recovery at 4 h, 10 µM",in vitro [10]; read-out: Recovery (%) 1st,101%
same,"recovery at 4 h, 10 µM",in vitro [10]; read-out: Recovery (%) 2nd,99%
same,"recovery at 4 h, 10 µM",in vitro [10]; read-out: Recovery (%) Mean,100%
same,"Papp A→B at 120 min, 100 µM",[11],30 ± 10.7 ×10⁻⁶ cm/s
same,Aβ(1–42) aggregation inhibition,Aβ1–42 aggregation [12]; 10 μM,did not inhibit Aβ(1–42) aggregation
same,inhibition at 10 µM,"Aβ1–42 aggregation [12]; 10 μM compound, 1.5 μM Aβ1–42, read-out: Percent inhibition ±SEM (%) ThT",-4.89%
same,half-life at 1 µM,in vitro [13],> 2 h
same,distance travelled to reach the platform,"[14]; day 3, scopolamine + 30 mg kg^−1",5.38 m
same,distance travelled to reach the platform,"[14]; day 5, scopolamine + 30 mg kg^−1",1.69 m
same,Distance in goal quadrant (% ±SEM),[14]; [16],"45.35 ±2.6 F[2,25] = 0.2035; NS %"
same,Entries in zone NW (n ±SEM),[14]; [16],"7.3 ±0.7 F[2,25] = 14.59; p <0.0001 n"
same,Latency time (s ±SEM),[14]; [16],"1.2 ±0.4 F[2,25] = 1.792; NS s"
same,Number of NW zone crossings (n ±SEM),[14]; [16],"2.6 ±0.5 F[2,25] = 2.182; NS n"
same,Time in target (NW) quadrant (s ±SEM),[14]; [16],"29.3 ±1.5 F[2,25] = 0.8737; NS s"
same,Total distance covered (m ±SEM),[14]; [16],"11.5 ±0.6 F2,25] = 0.3439; NS m"
same,mean speed of swimming,[14]; scopolamine + compound 2 30 mg kg^−1 (vehicle 0.17),0.16 m s^−1
